Calls of active or inactive are those of the source. No cut-off for these calls is given here.
Experiments:
Canis lupus familiaris [1] = organism: Canis lupus familiaris; assay: Induction of apoptosis in canine GL1 cells assessed as downregulation of Bcl-xl expression at 50 ug/ml after 24 hrs by Western blot analysis; assay type: functional, cell-based
CLBL-1 [2] = assay: Induction of apoptosis in canine CLBL1 cells preincubated with Z-VAD-fmk pan-caspase inhibitor assessed as activation of caspase-3/7 at 50 ug/ml after 24 hrs by flow cytometry; assay type: functional, cell-based; conditions: Canis lupus familiaris
Jurkat [3] = assay: Induction of apoptosis in human Jurkat cells assessed as activation of caspase-3/7 at 50 ug/ml after 24 hrs by flow cytometry; assay type: functional
CLBL-1 [4] = assay: Induction of apoptosis in canine CLBL1 cells assessed as activation of caspase-3/7 at 50 ug/ml after 24 hrs by flow cytometry; assay type: functional, Canis lupus familiaris
CLB70 [5] = assay: Induction of apoptosis in canine CLB70 cells assessed as downregulation of Bcl-xl expression at 50 ug/ml after 24 hrs by Western blot analysis; assay type: functional, cell-based; conditions: Canis lupus familiaris
[6] = Cytotoxic activity against canine GL1 cells assessed as cell death at 50 ug/ml after 24 hrs by propidium iodide staining-based FACS analysis; assay type: functional, Canis lupus familiaris
CLB70 [7] = assay: Cytotoxic activity against canine CLB70 cells assessed as cell death at 50 ug/ml after 24 hrs by propidium iodide staining-based FACS analysis; assay type: functional, Canis lupus familiaris
CLB70 [8] = assay: Induction of apoptosis in canine CLB70 cells at 50 ug/ml after 24 hrs by Annexin V/FITC staining based FACS analysis; assay type: functional, cell-based; conditions: Canis lupus familiaris
Jurkat [9] = assay: Induction of apoptosis in human Jurkat cells assessed as downregulation of Bcl-xl expression at 50 ug/ml after 24 hrs by Western blot analysis; assay type: functional, cell-based
CLBL-1 [10] = assay: Induction of apoptosis in canine CLBL1 cells assessed as downregulation of Bcl-2 expression at 50 ug/ml after 24 hrs by Western blot analysis; assay type: functional, cell-based; conditions: Canis lupus familiaris
Jurkat [11] = assay: Induction of apoptosis in human Jurkat cells at 50 ug/ml after 24 hrs by Annexin V/FITC staining based FACS analysis; assay type: functional, cell-based
CLBL-1 [12] = assay: Cytotoxic activity against canine CLBL1 cells assessed as cell death at 50 ug/ml after 24 hrs by propidium iodide staining-based FACS analysis; assay type: functional, Canis lupus familiaris
Jurkat [13] = assay: Cytotoxic activity against human Jurkat cells assessed as cell death at 50 ug/ml after 24 hrs by propidium iodide staining-based FACS analysis; assay type: functional
Jurkat [14] = assay: Induction of apoptosis in human Jurkat cells assessed as downregulation of Bcl-xl expression at 25 ug/ml after 24 hrs by Western blot analysis; assay type: functional, cell-based
Canis lupus familiaris [15] = organism: Canis lupus familiaris; assay: Induction of apoptosis in canine GL1 cells assessed as downregulation of Bcl-xl expression at 25 ug/ml after 24 hrs by Western blot analysis; assay type: functional, cell-based
[16] = Induction of apoptosis in canine GL1 cells assessed as activation of caspase-3/7 at 50 ug/ml after 24 hrs by flow cytometry; assay type: functional, Canis lupus familiaris
Jurkat [17] = assay: Cytotoxic activity against human Jurkat cells assessed as cell death after 24 hrs by propidium iodide staining-based FACS analysis; assay type: functional
CLBL-1 [18] = assay: Cytotoxic activity against canine CLBL1 cells assessed as cell death after 24 hrs by propidium iodide staining-based FACS analysis; assay type: functional; conditions: Canis lupus familiaris
CLB70 [19] = assay: Induction of apoptosis in canine CLB70 cells assessed as activation of caspase-3/7 at 50 ug/ml after 24 hrs by flow cytometry; assay type: functional, Canis lupus familiaris
Canis lupus familiaris [20] = organism: Canis lupus familiaris; assay: Induction of apoptosis in canine GL1 cells preincubated with Z-VAD-fmk pan-caspase inhibitor assessed as activation of caspase-3/7 at 50 ug/ml after 24 hrs by flow cytometry; assay type: functional, cell-based
CLBL-1 [21] = assay: Induction of apoptosis in canine CLBL1 cells at 50 ug/ml after 24 hrs by Annexin V/FITC staining based FACS analysis; assay type: functional, cell-based; conditions: Canis lupus familiaris
Canis lupus familiaris [22] = organism: Canis lupus familiaris; assay: Induction of apoptosis in canine GL1 cells assessed as cleavage of Bid at 25 to 50 ug/ml after 24 hrs by Western blot analysis; assay type: functional, cell-based
CLB70 [23] = assay: Induction of apoptosis in canine CLB70 cells assessed as downregulation of Bcl-2 expression at 50 ug/ml after 24 hrs by Western blot analysis; assay type: functional, cell-based; conditions: Canis lupus familiaris
CLB70 [24] = assay: Cytotoxic activity against canine CLB70 cells assessed as cell death after 24 hrs by propidium iodide staining-based FACS analysis; assay type: functional; conditions: Canis lupus familiaris
Jurkat [25] = assay: Induction of apoptosis in human Jurkat cells assessed as downregulation of Bcl-2 expression at 50 ug/ml after 24 hrs by Western blot analysis; assay type: functional, cell-based
CLB70 [26] = assay: Induction of apoptosis in canine CLB70 cells preincubated with Z-VAD-fmk pan-caspase inhibitor assessed as activation of caspase-3/7 at 50 ug/ml after 24 hrs by flow cytometry; assay type: functional, cell-based; conditions: Canis lupus familiaris
CLBL-1 [27] = assay: Induction of apoptosis in canine CLBL1 cells assessed as downregulation of Bcl-xl expression at 50 ug/ml after 24 hrs by Western blot analysis; assay type: functional, cell-based; conditions: Canis lupus familiaris
Jurkat [28] = assay: Induction of apoptosis in human Jurkat cells preincubated with Z-VAD-fmk pan-caspase inhibitor assessed as activation of caspase-3/7 at 50 ug/ml after 24 hrs by flow cytometry; assay type: functional, cell-based
Canis lupus familiaris [29] = organism: Canis lupus familiaris; assay: Cytotoxic activity against canine GL1 cells assessed as cell death after 24 hrs by propidium iodide staining-based FACS analysis; assay type: functional
CLBL-1 [30] = assay: Induction of apoptosis in canine CLBL1 cells assessed as cleavage of PARP1 at 50 ug/ml after 24 hrs by Western blot analysis; assay type: functional, cell-based; conditions: Canis lupus familiaris
Jurkat [31] = assay: Induction of apoptosis in human Jurkat cells assessed as cleavage of PARP1 at 25 to 50 ug/ml after 24 hrs by Western blot analysis; assay type: functional, cell-based
CLB70 [32] = assay: Induction of apoptosis in canine CLB70 cells assessed as cleavage of Bid at 25 to 50 ug/ml after 24 hrs by Western blot analysis; assay type: functional, cell-based; conditions: Canis lupus familiaris
Canis lupus familiaris [33] = organism: Canis lupus familiaris; assay: Induction of apoptosis in canine GL1 cells at 50 ug/ml after 24 hrs by Annexin V/FITC staining based FACS analysis; assay type: functional, cell-based
CLB70 [34] = assay: Induction of apoptosis in canine CLB70 cells assessed as cleavage of PARP1 at 25 to 50 ug/ml after 24 hrs by Western blot analysis; assay type: functional, cell-based; conditions: Canis lupus familiaris
Jurkat [35] = assay: Induction of apoptosis in human Jurkat cells assessed as cleavage of Bid at 25 to 50 ug/ml after 24 hrs by Western blot analysis; assay type: functional, cell-based
Canis lupus familiaris [36] = organism: Canis lupus familiaris; assay: Induction of apoptosis in canine GL1 cells assessed as downregulation of Bcl-2 expression at 50 ug/ml after 24 hrs by Western blot analysis; assay type: functional, cell-based
CLB70 [37] = assay: Induction of apoptosis in canine CLB70 cells assessed as downregulation of Bcl-xl expression at 25 to 50 ug/ml after 24 hrs by Western blot analysis; assay type: functional, cell-based; conditions: Canis lupus familiaris
Jurkat [38] = assay: Induction of apoptosis in human Jurkat cells assessed as downregulation of Bcl-2 expression at 25 to 50 ug/ml after 24 hrs by Western blot analysis; assay type: functional, cell-based
CLBL-1 [39] = assay: Induction of apoptosis in canine CLBL1 cells assessed as downregulation of Bcl-2 expression at 25 to 50 ug/ml after 24 hrs by Western blot analysis; assay type: functional, cell-based; conditions: Canis lupus familiaris
CLBL-1 [40] = assay: Induction of apoptosis in canine CLBL1 cells assessed as cleavage of Bid at 25 to 50 ug/ml after 24 hrs by Western blot analysis; assay type: functional, cell-based; conditions: Canis lupus familiaris
CLB70 [41] = assay: Induction of apoptosis in canine CLB70 cells assessed as downregulation of Bcl-2 expression at 25 to 50 ug/ml after 24 hrs by Western blot analysis; assay type: functional, cell-based; conditions: Canis lupus familiaris
Canis lupus familiaris [42] = organism: Canis lupus familiaris; assay: Induction of apoptosis in canine GL1 cells assessed as downregulation of Bcl-2 expression at 25 to 50 ug/ml after 24 hrs by Western blot analysis; assay type: functional, cell-based
CLBL-1 [43] = assay: Induction of apoptosis in canine CLBL1 cells assessed as downregulation of Bcl-xl expression at 25 to 50 ug/ml after 24 hrs by Western blot analysis; assay type: functional, cell-based; conditions: Canis lupus familiaris
Canis lupus familiaris [44] = organism: Canis lupus familiaris; assay: Induction of apoptosis in canine GL1 cells assessed as downregulation of Bcl-xl expression at 25 to 50 ug/ml after 24 hrs by Western blot analysis; assay type: functional, cell-based
Jurkat [45] = assay: Induction of apoptosis in human Jurkat cells assessed as downregulation of Bcl-xl expression at 25 to 50 ug/ml after 24 hrs by Western blot analysis; assay type: functional, cell-based

| SMILES | Activity (CLBL-1 [2]) | Activity (Jurkat [3]) | Activity (CLBL-1 [4]) | Activity [6] | Activity (CLB70 [7]) | Activity (CLB70 [8]) | Activity (Jurkat [11]) | Activity (CLBL-1 [12]) | Activity (Jurkat [13]) | Activity [16] | Activity (Jurkat [17]) | Activity (CLBL-1 [18]) | Activity (CLB70 [19]) | Activity (Canis lupus familiaris [20]) | Activity (CLBL-1 [21]) | Activity (CLB70 [24]) | Activity (CLB70 [26]) | Activity (Jurkat [28]) | Activity (Canis lupus familiaris [29]) | Activity (CLBL-1 [30]) | also measured |
| --- | --- | --- | --- | --- | --- | --- | --- | --- | --- | --- | --- | --- | --- | --- | --- | --- | --- | --- | --- | --- | --- |
| Cc1ccc(C)c([C@H]2CC(=O)O[C@@H]2[C@@H](C)I)c1 | inactive | 66.93% | 78.89% | 60% | 60% | Active | Active | 80% | 60% | 58.47% | Dose-dependent effect | Dose-dependent effect | 55.8% | inactive | Active | Dose-dependent effect | inactive | inactive | Dose-dependent effect | Active | Activity (Canis lupus familiaris [1]): Active; Activity (CLB70 [5]): Active; Activity (Jurkat [9]): Active; Activity (CLBL-1 [10]): inactive; Activity (Jurkat [14]): inactive; Activity (Canis lupus familiaris [15]): inactive; Activity (Canis lupus familiaris [22]): Active; Activity (CLB70 [23]): Active; Activity (Jurkat [25]): Active; Activity (CLBL-1 [27]): inactive; Activity (Jurkat [31]): Active; Activity (CLB70 [32]): Active; Activity (Canis lupus familiaris [33]): Active; Activity (CLB70 [34]): Active; Activity (Jurkat [35]): inactive; Activity (Canis lupus familiaris [36]): Active |
| Cc1ccc(C)c([C@@H]2CC(=O)O[C@H]2[C@H](C)I)c1 | inactive | 32.35% | 73.53% | 25% | 25% | Active | Active | 80% | 25% | 20.35% | Dose-dependent effect | Dose-dependent effect | 30.04% | inactive | Active | Dose-dependent effect | inactive | inactive | Dose-dependent effect | Active | Activity (CLB70 [37]): Active; Activity (Jurkat [38]): Active; Activity (CLBL-1 [39]): inactive; Activity (CLBL-1 [40]): Active; Activity (CLB70 [41]): Active; Activity (Canis lupus familiaris [42]): Active; Activity (CLBL-1 [43]): inactive; Activity (Canis lupus familiaris [44]): Active; Activity (Jurkat [31]): Active; Activity (Canis lupus familiaris [33]): Active; Activity (CLB70 [34]): Active; Activity (Jurkat [35]): inactive; Activity (Jurkat [45]): Active |

— ChEMBL document CHEMBL4219139, “Enantiomeric trans β-aryl-δ-iodo-γ-lactones derived from 2,5-dimethylbenzaldehyde induce apoptosis in canine lymphoma cell lines by downregulation of anti-apoptotic Bcl-2 family members Bcl-xL and Bcl-2” (2018)
